# Measured values reported in PMC8522775, “Population Pharmacokinetics of Rezafungin in Patients with Fungal Infections” (Antimicrobial Agents and Chemotherapy, 2021).
# Like-named read-outs stand apart in the source and are kept apart here. Numbered stars: 1 amine (or outer) side, 2 acyl side, 3 side chain; on linkers, the order of the positions; unused ones are H or OH. Bridge positions count the residues as written; N and C are the ends. Square brackets hold non-standard residues; d marks the D form. Peptide text beside a SMILES is read from it. * marks the point of attachment. Orn(4R-OH,5R-OCH2CH2NMe3+) = C[N+](C)(C)CCO[C@@H](N[*:3])[C@H](O)C[C@H](N[*:1])C(=O)[*:2]; pTerphenylCO(4''-OnC5H11) = CCCCCOc1ccc(-c2ccc(-c3ccc(C(=O)*)cc3)cc2)cc1; hTyr(3S-OH,4S-OH) = N[C@H](C(=O)O)[C@H](O)[C@@H](O)c1ccc(O)cc1; Pro(3S-OH,4S-Me) = C[C@H]1CN[C@H](C(=O)O)[C@H]1O; Hyp = O=C(O)[C@@H]1C[C@@H](O)CN1
# How the values were obtained:
# [1] = with normal serum albumin, cited from earlier work
# Excerpt: Consistent with the previous population PK model, which had relationships between body weight and all PK parameters ([12]), body size in the form of BSA was predictive of the variability in Vc, Vp1, and Vp2. However, body size was not a significant predictor of the variability in rezafungin CL in this population. One possible explanation for the lack of a body size relationship for CL is the fact that sex is predictive of the IIV in CL but none of the vo ...
# [2] = Population PK model of rezafungin in plasma, pooled phase 1 and phase 2 data; format: in vivo, human
# Excerpt: Data were pooled from three phase 1 studies (NCT02516904, NCT02551549, and CD101.IV.1.06) and one phase 2 study (NCT02734862). The protocols and informed consent were reviewed and approved by an appropriate institutional review board before subject enrollment. The studies were designed and monitored in compliance with the ethical principles of good clinical practice and in accordance with the Declaration of Helsinki.
# The first phase 1 study (NCT2516904) was a single ascending dose (SAD) study in which subjects received a single rezafungin dose of 50, 100, 200, or 400 mg or matching placebo administered as a 60-min IV infusion. A total of 32 subjects were enrolled and randomized evenly to each of the four dosing cohorts (6 active and 2 placebo in each cohort). Blood samples for determination of rezafungin plasma concentrations were obtained prior to the dose and at 0.25, 0.5, 1, 1.5, 2, 4, 6, 8, 12, 24, 48, and 120 h after the start of infusion and on days 7, 14 (±1 day), and 21 (±1 day). The second phase 1 study (NCT02551549) was a multiple ascending dose (MAD) study. A total of 24 subjects were enrolled and randomized evenly to one of three cohorts. In cohorts 1 and 2, subjects received 100 or 200 mg of rezafungin (or matching placebo in a 3:1 ratio in each cohort), respectively, as 60-min IV infusions on days 1 and 8. In cohort 3, subjects received 400 mg (or matching placebo in a 3:1 ratio), respectively, as 60-min IV infusions on days 1, 8, and 15. Blood samples were collected predose and at 0.5, 1, 1.5, 2, 4, 6, 8, 12, 24, 48, and 120 h after the start of each infusion and on days 7, 14 (±1 day), 21 (±1 day), and 35 (±1 day, cohort 3 only). The third phase 1 study (CD101.IV.1.06) was designed to assess the impact of single, ascending doses of rezafungin on QTcF interval in healthy subjects. Subjects were randomized to receive either rezafungin (600 or 1,400 mg IV at a rate of 400 mg/h, n = 12 per dose group), moxifloxacin (400 mg IV, n = 24), or placebo. Only data from subjects randomized to rezafungin were included in the population PK analysis data set. Blood samples for determination of rezafungin plasma concentrations were obtained prior to the dose and at 1.5, 2.5, 3.5, 5, 6, 8, 12, 24, 48, 96, and 168 h after the start of the infusion.
# (§1) The phase 2 study (NCT02734862, also known as the STRIVE trial) was a multicenter, randomized, double-blind study designed to assess the safety and efficacy of rezafungin, compared to that of caspofungin followed by optional oral fluconazole step-down, in the treatment of patients with candidemia and/or invasive candidiasis. Treatment groups included two dose regimens of rezafungin IV once weekly (400 mg IV or 400 mg IV on week 1 followed by 200 mg on subsequent weeks) or caspofungin IV once daily. Additional doses after day 14 were allowed based on criteria defined in the study protocol. Blood samples for determination of rezafungin plasma concentrations were obtained within 10 min before the end of infusion and either at 4 and 8 h on day 1 (as specified in the original protocol) or from 15 min to 1 h after the end of infusion and 2 to 12 h after the end of infusion on day 1 (as modified by protocol amendment, designed to better inform the population PK model). Additional samples were obtained with random clinical blood draws on day 2 and day 4, as well as prior to the dose on day 8 and day 15 (or day 14 if no day 15 dose was administered).
# All blood samples were assayed for plasma rezafungin concentration using a liquid chromatography coupled to tandem mass spectrometry (LC/MS/MS) method that has been described previously ([11], [12]). In brief, the calibration range for the assay was 10.0 ng/ml to 10,000 ng/ml, and interassay accuracy and precision were excellent (accuracy ranged from 0.3 to 4.3%, and precision ranged from 2.7 to 5.0%). The same assay was used for all four studies. […]
# [3] = Post hoc rezafungin exposure and PK parameter estimates for patients of the STRIVE trial; format: in vivo, human; conditions: n = 68, plasma; for AUC0–168 / Cmax / Cmin: after first dose and prior to the second dose; for AUC0–168: from individual post hoc parameters; for Cmax: highest predicted concentration; for Cmin: lowest predicted concentration; for clearance / Vd: human, iv; for clearance: individual post hoc estimates from final model; for Vd: volume of distribution at steady state, individual post hoc estimates, read-out: Vss
# Protocol: as §1
# All blood samples were assayed for plasma rezafungin concentration using a liquid chromatography coupled to tandem mass spectrometry (LC/MS/MS) method that has been described previously ([11], [12]). In brief, the calibration range for the assay was 10.0 ng/ml to 10,000 ng/ml, and interassay accuracy and precision were excellent (accuracy ranged from 0.3 to 4.3%, and precision ranged from 2.7 to 5.0%). The same assay was used for all four studies.
# Patient-specific estimates of rezafungin exposure (AUC from zero to tau [AUC0−τ], maximum concentration of drug [Cmax], and minimum concentration of drug [Cmin]) were derived using individual post hoc PK parameter estimates obtained from the final model. The PK parameters and the mrgsolve package in R ([22]) were then used to simulate predicted plasma rezafungin concentration-time data for each subject for the duration of time between the first and second doses. Cmax and Cmin were defined as the highest and lowest predicted concentrations over that first dosing interval, respectively, while AUC0-τ was calculated via numerical integration of the concentration-time profile. Summary statistics for the rezafungin exposures and key PK parameters (i.e., CL and volume of distribution at steady state [Vss]) were calculated for the patients from the STRIVE trial.
# [4] = final population PK model, covariate effect: (BSA/1.83)^power
# [5] = STRIVE patients, median (range)
smiles,measurement,setting,value
"CCCCCOc1ccc(-c2ccc(-c3ccc(C(=O)N[C@H]4C[C@@H](O)[C@@H](OCC[N+](C)(C)C)NC(=O)[C@@H]5[C@@H](O)[C@@H](C)CN5C(=O)[C@H]([C@@H](C)O)NC(=O)[C@H]([C@H](O)[C@@H](O)c5ccc(O)cc5)NC(=O)[C@@H]5C[C@@H](O)CN5C(=O)[C@H]([C@@H](C)O)NC4=O)cc3)cc2)cc1 [rezafungin] ({pTerphenylCO(4''-OnC5H11)}-[Orn(4R-OH,5R-OCH2CH2NMe3+)]T[Hyp][hTyr(3S-OH,4S-OH)]T[Pro(3S-OH,4S-Me)]; lactam 1-C)",protein binding,[1]; humans,97.4%
same,protein binding,[1]; rats,99.2%
same,"Vc, proportional change in infected patients","[2]; final population PK model, covariate effect of infection status on Vc",0.478
same,"Vp2, proportional change in infected patients","[2]; final population PK model, covariate effect of infection status on Vp2",1.69
same,Vp1-BSA power,[2]; [4],1.14
same,Vp2-BSA power,[2]; [4],2.47
same,Vp1-albumin power,"[2]; final population PK model, covariate effect: (albumin/4.2)^power",−0.829
same,Vc-BSA slope,"[2]; final population PK model, covariate effect: Vc + slope x (BSA - 1.83)",7.54
same,"CLd1, population mean final estimate","[2]; final population PK model, distributional clearance to peripheral compartment 1",18.2 L/h
same,"CLd2, population mean final estimate","[2]; final population PK model, distributional clearance, peripheral compartment 2",0.541 L/h
same,"CLd3, population mean final estimate","[2]; final population PK model, distributional clearance, peripheral compartment 3",0.0743 L/h
same,"Vp1, population mean final estimate","[2]; final population PK model, volume of distribution for peripheral compartment 1, albumin 4.2, BSA 1.83",14.6 L
same,"Vp2, population mean final estimate","[2]; final population PK model, volume of distribution for peripheral compartment 2, BSA 1.83, not infected",6.69 L
same,"Vc, population mean final estimate","[2]; final population PK model, volume of distribution for the central compartment, BSA 1.83, not infected",11.1 L
same,"Vp3, population mean final estimate","[2]; final population PK model, volume of peripheral compartment 3",13.6 L
same,clearance,"[2]; human, final linear four-compartment population PK model, zero-order IV input, pooled healthy volunteers (phase 1) and infected patients (phase 2), 135 subjects, 50 to 1,400 mg IV, plasma LC/MS/MS, NONMEM FOCE-I, albumin 4.2, read-out: CL, population mean final estimate (converted)",4.23 mL/min
same,AUC0–168,[3]; [5],"673 (372–1,210) mg·h/liter"
same,Cmax,"[3]; STRIVE patients, mean (SD), SD",16.4 (4.38) mg/liter
same,Cmax,[3]; [5],16.4 (7.10–26.0) mg/liter
same,Cmin,"[3]; STRIVE patients, mean (SD), SD",2.07 (0.659) mg/liter
same,Cmin,[3]; [5],1.90 (1.04–3.83) mg/liter
same,clearance,"[3]; STRIVE patients, mean (SD), SD",6.08 mL/min
same,clearance,[3]; [5],5.75 mL/min
same,Vd,"[3]; STRIVE patients, mean (SD), SD",61 L
same,Vd,[3]; [5],52.7 L
same,AUC0–168,"[3]; patients with candidemia and/or invasive candidiasis, STRIVE trial, 400 mg IV week 1, mean (SD), SD",709 (184) mg·h/liter
